Results taken from paper PMC9150124, “Design of a Potent, Selective, and Brain-Penetrant Inhibitor of Wnt-Deactivating Enzyme Notum by Optimization of a Crystallographic Fragment Hit” (Journal of Medicinal Chemistry, 2022).
Where two headings read alike, the source gives them in different places.

Tests used:
MDR1 (P-gp) = assay: in vitro; details: dog
in vitro = details: dog
P-gp (MDR1) = assay: in vitro; details: dog
hERG = target: T1, hERG (Homo sapiens, UniProt Q12809); assay: Safety47 hERG assay; assay type: cell-based
T1 construct: Eurofins (DiscoverX Safety47)
T1 sequence (Q12809 whole entry): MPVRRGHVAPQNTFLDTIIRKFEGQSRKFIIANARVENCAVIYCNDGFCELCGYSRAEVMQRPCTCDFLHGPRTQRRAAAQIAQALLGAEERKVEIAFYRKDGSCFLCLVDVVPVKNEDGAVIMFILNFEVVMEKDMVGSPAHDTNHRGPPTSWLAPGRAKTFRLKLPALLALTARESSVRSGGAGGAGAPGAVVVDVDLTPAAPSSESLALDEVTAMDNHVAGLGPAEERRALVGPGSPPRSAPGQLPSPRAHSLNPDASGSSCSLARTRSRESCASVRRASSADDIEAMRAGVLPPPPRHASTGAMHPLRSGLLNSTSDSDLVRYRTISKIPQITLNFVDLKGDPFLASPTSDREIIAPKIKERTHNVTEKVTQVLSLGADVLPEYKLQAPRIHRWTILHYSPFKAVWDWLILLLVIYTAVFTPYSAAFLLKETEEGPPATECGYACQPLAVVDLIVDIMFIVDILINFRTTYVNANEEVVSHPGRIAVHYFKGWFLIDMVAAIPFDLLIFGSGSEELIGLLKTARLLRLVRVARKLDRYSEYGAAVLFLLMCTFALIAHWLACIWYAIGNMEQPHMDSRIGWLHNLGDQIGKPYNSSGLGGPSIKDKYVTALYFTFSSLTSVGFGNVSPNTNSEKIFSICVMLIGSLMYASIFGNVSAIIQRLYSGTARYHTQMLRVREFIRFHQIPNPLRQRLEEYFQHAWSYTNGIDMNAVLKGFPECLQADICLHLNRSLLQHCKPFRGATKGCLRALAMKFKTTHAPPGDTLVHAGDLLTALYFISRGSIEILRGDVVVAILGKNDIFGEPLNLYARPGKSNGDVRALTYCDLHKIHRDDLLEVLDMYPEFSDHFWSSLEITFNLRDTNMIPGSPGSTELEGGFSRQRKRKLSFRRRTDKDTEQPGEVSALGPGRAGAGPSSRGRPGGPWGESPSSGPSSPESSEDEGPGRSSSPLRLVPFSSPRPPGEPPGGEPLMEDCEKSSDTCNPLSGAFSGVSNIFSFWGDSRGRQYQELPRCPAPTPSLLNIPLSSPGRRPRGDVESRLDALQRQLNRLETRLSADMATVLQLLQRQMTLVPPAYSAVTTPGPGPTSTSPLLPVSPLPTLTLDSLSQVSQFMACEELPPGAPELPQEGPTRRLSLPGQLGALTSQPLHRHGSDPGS
Procedure: (§1) Screening for off-target pharmacology across multiple drug target classes was performed in the DiscoverX Safety47 panel as the SAFETYscan E/IC50 ELECT service by Eurofins (San Diego CA, U.S.A.). Assay information and data are presented in the Supporting Information.

CYP2B6 = target: T2, CYP2B6 (Homo sapiens, UniProt P20813); assay: CYP450 inhibition in HLM
T2 sequence (P20813 1-491): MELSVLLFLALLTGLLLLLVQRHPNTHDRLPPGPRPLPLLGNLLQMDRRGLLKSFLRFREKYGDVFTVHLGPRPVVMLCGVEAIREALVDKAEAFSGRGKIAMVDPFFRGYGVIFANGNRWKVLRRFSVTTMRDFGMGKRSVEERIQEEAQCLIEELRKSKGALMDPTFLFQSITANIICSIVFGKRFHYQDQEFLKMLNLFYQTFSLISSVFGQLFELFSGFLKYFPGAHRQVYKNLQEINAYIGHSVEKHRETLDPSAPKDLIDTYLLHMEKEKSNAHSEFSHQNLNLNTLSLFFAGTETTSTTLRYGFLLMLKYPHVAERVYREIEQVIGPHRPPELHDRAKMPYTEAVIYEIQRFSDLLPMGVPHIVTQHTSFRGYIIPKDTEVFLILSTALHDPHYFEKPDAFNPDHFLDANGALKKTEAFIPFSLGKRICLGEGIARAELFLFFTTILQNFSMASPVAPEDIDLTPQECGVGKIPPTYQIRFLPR

[1] = Stability in mouse liver microsomes; assay type: in vitro ADME; details: for half-life: mouse, liver microsomes, read-out: MLM Stability t1/2
MAOA = target: T3, MAOA (Homo sapiens, UniProt P21397); assay: Safety47 MAOA assay; assay type: biochemical
T3 construct: Eurofins (DiscoverX Safety47)
T3 sequence (P21397 whole entry): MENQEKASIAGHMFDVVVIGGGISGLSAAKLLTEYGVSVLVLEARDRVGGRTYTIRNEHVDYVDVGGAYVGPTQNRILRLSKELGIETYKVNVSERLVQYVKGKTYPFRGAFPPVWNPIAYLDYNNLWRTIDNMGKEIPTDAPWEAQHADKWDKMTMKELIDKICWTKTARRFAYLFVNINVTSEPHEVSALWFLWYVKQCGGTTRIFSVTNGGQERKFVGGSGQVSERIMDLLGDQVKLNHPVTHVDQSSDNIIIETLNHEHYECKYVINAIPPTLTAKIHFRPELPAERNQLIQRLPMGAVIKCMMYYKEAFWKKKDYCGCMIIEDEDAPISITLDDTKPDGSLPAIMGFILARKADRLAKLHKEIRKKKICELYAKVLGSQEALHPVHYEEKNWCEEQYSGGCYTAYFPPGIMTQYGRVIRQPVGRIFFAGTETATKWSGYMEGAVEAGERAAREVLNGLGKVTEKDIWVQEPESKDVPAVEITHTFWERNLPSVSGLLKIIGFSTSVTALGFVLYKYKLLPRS
Procedure: as §1
Safety pharmacology studies
Screening for off-target pharmacology across multiple drug target classes was performed in the DiscoverX Safety47™ panel as the SAFETYscan E/IC50 ELECT service by eurofins (San Diego CA, U.S.A.). The assays were performed utilizing the PathHunter enzyme fragment complementation (EFC) technology, FLIPR®-based cellular screening assays, KINOMEscan kinase binding assays, and a variety of enzymatic assays (78 assays).

CYP2C19 = CYP2C19 (Homo sapiens, UniProt P33261); assay: CYP450 inhibition in HLM
CYP2C19, sequence (P33261 whole entry): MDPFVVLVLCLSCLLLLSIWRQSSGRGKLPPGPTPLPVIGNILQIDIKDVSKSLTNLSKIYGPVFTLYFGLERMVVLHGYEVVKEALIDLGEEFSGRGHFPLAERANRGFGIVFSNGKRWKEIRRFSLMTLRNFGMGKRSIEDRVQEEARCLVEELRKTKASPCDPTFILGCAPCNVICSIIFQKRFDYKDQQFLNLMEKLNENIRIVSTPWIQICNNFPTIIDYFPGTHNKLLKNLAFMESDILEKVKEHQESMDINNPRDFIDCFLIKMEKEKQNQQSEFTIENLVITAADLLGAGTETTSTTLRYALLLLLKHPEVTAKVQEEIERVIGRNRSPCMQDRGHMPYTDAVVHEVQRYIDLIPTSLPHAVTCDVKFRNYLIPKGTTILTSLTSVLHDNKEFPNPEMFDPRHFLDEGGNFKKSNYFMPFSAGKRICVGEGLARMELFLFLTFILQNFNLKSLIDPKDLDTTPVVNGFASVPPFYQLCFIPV

[2] = Plasma protein binding, rapid equilibrium dialysis; details: for fraction unbound at 4 h, 2 µM: plasma
Procedure: G. Plasma protein binding (PPB):
Method: rapid equilibrium dialysis.
Test System Mouse Plasma (K2EDTA)
Test compound concentration 10 µM (mouse) or 2 µM (rat)

[3] = Stability in dog liver microsomes
[4] = Permeability using Caco-2 cell monolayer; details: human
Caco-2 cells = assay: Permeability using Caco-2 cell monolayer; details: 2.00 μM
[5] = MDCK-MDR1, MDCK-MDR1 AB Papp, apical to basal
[6] = MDCK-MDR1, MDCK-MDR1 BA Papp, basal to apical

Which results are given for `FC(F)(F)c1c(Cl)ccc(-n2ccnn2)c1Cl` [8l, 1-(2,4-Dichloro-3-(trifluoromethyl)phenyl)-1H-1,2,3-triazole]?
recovery (MDR1 (P-gp); MDCK-MDR1, MDR1-MDCKII A to B % Recovery): 85.1%; recovery (MDR1 (P-gp); MDCK-MDR1, MDR1-MDCKII B to A % Recovery): 90.5%; Papp (in vitro; [5]): 31 ×10⁻⁶ cm/s; Papp (in vitro; [6]): 39 ×10⁻⁶ cm/s; Papp (P-gp (MDR1); [5]): 31.4 ×10⁻⁶ cm/s; Papp (P-gp (MDR1); [6]): 39.2 ×10⁻⁶ cm/s; IC50 (hERG): > 30 µM; IC50 (CYP2B6): 3.15 µM; IC50 (CYP2B6; read-out: CYP inhibition IC50, 2B6, HLM): 5.2 µM; IC50 (CYP2B6; read-out: IC50 CYP2B6/Bupropion, (+)NADPH pre-incubation): 5.21 µM; MLM Cli [1]: 3.2 μL/min/mg protein; Liver microsome stability Cli, MLM ([1]; additional study (Table 5)): 11.7 μL/min/mg protein; half-life ([1]; Table S4): 2 h; half-life ([1]; Table S8): 1.97 h; IC50 (MAOA): 28 µM; IC50 (CYP2C19): 7.27 µM; IC50 (CYP2C19; read-out: CYP inhibition IC50, 2C19, HLM): 8.1 µM; IC50 (CYP2C19; read-out: IC50 CYP2C19/S-Mephenytoin, (+)NADPH pre-incubation): 8.07 µM; fraction unbound at 4 h, 2 µM ([2]; SD, rat, pH 7.4): 0.0552; fraction unbound at 4 h, 2 µM ([2]; SD, rat, pH 7.4, Plasma protein binding (PPB), % bound, rat plasma): 0.0552; recovery at 4 h, 2 µM ([2]; SD, rat, rat plasma, pH 7.4): 99.3%; Plasma protein binding (PPB), % bound ([2]; mouse plasma): 95.8%; recovery at 5 h, 10 µM ([2]; mouse, mouse plasma (K2EDTA), pH 7.4): 89.9%; Plasma protein binding (PPB), % bound ([2]; rat plasma): 94.5%; Liver microsome stability Cli, DLM [3]: 10.8 μL/min/mg protein; half-life ([3]; dog, liver microsomes): 2.14 h; recovery at 2 h, 2 µM ([4]; Caco-2, pH 7.4, Caco-2 A to B % Recovery): 89.1%; Papp at 2 h, 2 μM ([4]; Caco-2, pH 7.4, Caco-2 AB Papp, apical to basal): 49.4 ×10⁻⁶ cm/s; recovery at 2 h, 2 µM ([4]; Caco-2, pH 7.4, Caco-2 B to A % Recovery): 102%; Papp at 2 h, 2 μM ([4]; Caco-2, pH 7.4, Caco-2 BA Papp, basal to apical): 30.3 ×10⁻⁶ cm/s; Caco-2 AB Papp (Caco-2 cells; apical to basal): 49 10-6 cm/sec; Caco-2 BA Papp (Caco-2 cells; basal to apical): 30 10-6 cm/sec
